These results are taken from patent US4847297A, “Use of penicillamine for treating immune damaging illnesses” (Degussa Aktiengesellschaft, priority 1985, dated 1989).

The subject of data set [1] is HTLV-III infected H9 cells. Nature of the data set: growth of HTLV-III infected H9 cells. The note with it: for Number of cells/ml × 10^-6, infected / effect on number of infected H9 cells (in words): 4 days after infection; for Number of cells/ml × 10^-6, infected: control 0.18; for effect on number of infected H9 cells (in words): increasing concentration; for protective effect on T-cells: infected H9 cells. The data set is classed as cell-based, human. As for the experimental part:
(§1) HTLV-III virus infection of H9 cells (human T-cell line of a leukemia patient of the National Cancer Institute, Bethesda, Md., USA); the H9 cells were trreated with Polybrene (Hexadimethrine bromide) (2 μg/ml) for 30 minutes at 37° C., subsequently the Polybrene was washed out and the cells were infected with 2×10^8 HTLV virus particles per 4×10^5 H9 cells. Before the infection, the virus was incubated with the material at various concentrations for 45 minutes at 37° C. For controls, the virus was incubated under the same experimental conditions but without addition of the material. The cell cultures were analyzed on the 4th day after infection as follows:
(§2) In order to show the selectivity of the effect on the replication of HTLV-III virus, the effect of D- and L-penicillamine on the growth of H9 cells can be examined.
(§3) The number of cells was determined 4 days after the experiment began.
4 days after the infection with the HTLV-III virus the number of H9 cells is reduced from 1.24×10^6 to 0.18×10^6.

Data set [2] concerns HTLV-III virus (LAV-I virus). Nature of the data set: inhibition of HTLV-III (LAV-I) virus replication in cell culture. The data set is classed as cell-based, HTLV-III virus in H9 cells (human T-cell line). Particulars: in vitro; for inhibition at 20 µg/mL / inhibition at 40 µg/mL: Human immunodeficiency virus 1, H9, 96 h, cell culture; for inhibition at 20 µg/mL: 20 μg/ml, read-out: prevention of replication of HTLV-III virus (LAV-I virus); for inhibition at 40 µg/mL: 40 μg/ml, read-out: effectiveness in vitro (prevention of virus replication). Here is the method: At a concentrate of 20 μg/ml the replication of HTLV-III--virus (LAV-I-virus) is prevented in a cell culture with L-penicillamine to an extent of about 95% and with D-penicillamine to about 80%. At a concentration of 40 μg/ml, the effectiveness of both L-penicillamine and D-penicillamine in vitro is nearly 100%.
as §1
(§4) Immunofluorescence analysis: The effect of D- and L-penicillamine on the propagation of the HTLV-III virus in H9 cells was determined by measuring the proteins p15 and p24 (molecular weight 15,000 respectively 24,000) present in HTLV-III. The immunofluorescence analysis was carried out on fixed methanol:acetone (1:1) cells using monoclonal antibodies (National Cancer Institute USA) against HTLV-III p15 and p24. The infected cells treated with or without penicillamine were secured on toxoplasmosis glass slides. After 30 minutes treatment with methanol-acetone (1:1) at room temperature, the glass slides were stored in closed plastic containers at -20° C. until use. The monoclonal antibodies were added to duplicate wells, incubated at room temperature in a moist chamber for 1 hour and washed with PBS (phosphate buffered saline) solution containing 0.25% Triton X-100 for two hours. The cells were then exposed to goatantimouse IgG (Capell Labs.) bound with fluorescein (FITC) for 1 hour and washed with PBS buffer solution containing 0.25% Triton X-100 overnight. The glass sides were mounted with 50% glycerine and the cell fluorescence observed with a Zeiss fluorescence microscope.

For data set [3], the system named is HTLV-III virus (viral protein p24). Nature of the data set: propagation of HTLV-III in H9 cells, formation of viral protein p24, immunofluorescence with monoclonal antibodies. The data set is classed as cell-based, HTLV-III virus in H9 cells (human T-cell line). The note with it: for prevention of the formation of p24 (in words): FIG. 2, same manner as with p15; for IC100: Human immunodeficiency virus 1, H9, 96 h, p24, FIG. 2, 4th day after infection, read-out: concentration needed for complete inactivation of the viral replication. As for the experimental part: FIG. 2 is a similar graph where the determination was by the formation of viral protein p24.
as §1, §4
(§5) The effect of D- and L-penicillamine on the propagation of HTLV-III in H9 cells was determined through the function of the material concentration by the formation of the viral proteins p15 (FIG. 1) and p24 (FIG. 2) in an immunofluorescence assay with monoclonal antibodies.

Data set [4] is described as follows: in vitro. Particulars: human, h9 cells. The data set is classed as cell-based, human. Here is the method:
as §1, §2, §3

The conditions of data set [5]: in vivo, cited from earlier work.
Data set [6] concerns HTLV-III virus (viral protein p15). Nature of the data set: propagation of HTLV-III in H9 cells, formation of viral protein p15, immunofluorescence with monoclonal antibodies. Particulars: for prevention of the formation of p15 virus protein (in words): FIG. 1, concentration dependence; for inhibition at 40 µg/mL: Human immunodeficiency virus 1, H9, 40 μg/ml, 4th day after infection. The data set is classed as cell-based, HTLV-III virus in H9 cells (human T-cell line). As for the experimental part: FIG. 1 is a graph of the effect of D- and L-penicillamine on the propagation of HTLV-III in H9 cells through the function of the concentration determined by the formation of the viral protein 15; and
as §1, §4, §5

Data set [7] deals with plasma proteins (preponderantly albumen). The note with it: cited from earlier work.
For data set [8], the system named is non-infected H9 cells. Nature of the data set: in vitro. The data set is classed as cell-based, human. As for the experimental part:
as §1, §2, §3

On to `CC(C)(S)[C@@H](N)C(=O)O` [D-penicillamine], for which, in data set [1] (30 μg/ml), the “Number of cells/ml × 10^-6, infected” value turned out to be 0.27 cells/ml × 10^-6. For the same molecule, the “Number of cells/ml × 10^-6, infected” value in data set [1] (40 μg/ml) came out at 0.35 cells/ml × 10^-6. Further, in data set [1] (100 μg/ml), the “Number of cells/ml × 10^-6, infected” value was 0.8 cells/ml × 10^-6. Also, in data set [1], the “effect on number of infected H9 cells (in words)” value is recorded as “considerable increase of the cell number” and the “protective effect on T-cells” value is reported as “protective effect on T-cells”. Also, in data set [2], the inhibition at 20 µg/mL was roughly 80% and the inhibition at 40 µg/mL is roughly 100%. In data set [3], the “prevention of the formation of p24 (in words)” value is given as “prevent the formation of p24” and the IC100 turned out to be 40 µg/mL. This molecule also came in with an MCC at 96 h in data set [4] greater than 100 µg/mL. The “resorption after oral administration” value in data set [5] (po) was “about 60%”. Further, in data set [5], the “distribution over the entire organism” value is listed as “distributed relatively quickly over the entire organism”; the “elimination in unchanged form” value was “up to 10%”; the “route and form of elimination” value is given as “predominantly via the kidneys, the greatest part as disulfide”. In data set [6], the “prevention of the formation of p15 virus protein (in words)” value is recorded as “concentration dependent prevention of the formation of p15 virus protein” and the inhibition at 40 µg/mL was 98.5 to 99.4%. In data set [7], the “binding to plasma proteins” value is reported as “bound to plasma proteins (preponderantly albumen)” and the “free (not protein bound) concentration with increasing dosage” value is given as “obviously increases with increasing dosage”.

As to `CC(C)(S)[C@H](N)C(=O)O` [L-penicillamine], in data set [1] (30 μg/ml), the “Number of cells/ml × 10^-6, infected” value is given as 0.35 cells/ml × 10^-6. In addition, in data set [1] (40 μg/ml), the “Number of cells/ml × 10^-6, infected” value was 0.38 cells/ml × 10^-6. Besides, in data set [1] (100 μg/ml), the “Number of cells/ml × 10^-6, infected” value is on record as 0.98 cells/ml × 10^-6. In addition, in data set [1], the “effect on number of infected H9 cells (in words)” value is given as “considerable increase of the cell number” and the “protective effect on T-cells” value is listed as “protective effect on T-cells”. In data set [2], the inhibition at 20 µg/mL is roughly 95% and the inhibition at 40 µg/mL is roughly 100%. Moreover, in data set [3], the “prevention of the formation of p24 (in words)” value is given as “prevent the formation of p24” and the IC100 was found to be 40 µg/mL. In addition, in data set [6], the “prevention of the formation of p15 virus protein (in words)” value was “concentration dependent prevention of the formation of p15 virus protein” and the inhibition at 40 µg/mL was in the range of 98.5 to 99.4%. Further, the “effectiveness at lower concentration, L- versus D-penicillamine (p15)” value in data set [6] (lower concentration, FIG. 1) is “more effective than D-penicillamine”.

In the case of `CC(C)(S)[C@H](N)C(=O)O` [penicillamine], the “inhibition of virus replication (in words)” value in data set [2] is listed as “can greatly inhibit the virus replication”. Besides, the “toxicity to the normal cell growth” value in data set [8] was “shows no toxicity to the normal cell growth”.
